Test results reported in ChEMBL document CHEMBL2203136, “Synthesis, characterization, biological evaluation and QSAR studies of 11-p-substituted phenyl-12-phenyl-11a,12-dihydro-11H-indeno[2,1-c][1,5]benzothiazepines as potential antimicrobial agents” (Eur J Med Chem, 2012).
≈ marks a conversion by molar mass, not a printed value. Calls of active or inactive are those of the source. The calls are words filed in the database; no cut-off is given here.

Experiments:
Bacillus subtilis [1] = test: microbe, parasite or virus in culture; conditions: MTCC 441, 24 h
Bacillus subtilis [2] = tested on: Bacillus subtilis
Staphylococcus aureus [3] = test: Antibacterial activity against Staphylococcus aureus MTCC 7443 after 24 hrs by serial dilution method; type: functional; conditions: for MIC: Staphylococcus aureus, MTCC 7443, 24 h
Aspergillus fumigatus [4] = test: Antifungal activity against Aspergillus fumigatus MTCC 2550 after 72 hrs by serial dilution method; type: functional; conditions: for MIC: Aspergillus fumigatus, MTCC 2550, 72 h
Pseudomonas aeruginosa [5] = test: Antibacterial activity against Pseudomonas aeruginosa MTCC 7952 after 24 hrs by serial dilution method; type: functional; conditions: for MIC: Pseudomonas aeruginosa, MTCC 7952, 24 h
Pseudomonas aeruginosa [6] = test: Antibacterial activity against Pseudomonas aeruginosa MTCC 7952 after 24 hrs by serial dilution method relative to 11,12-Diphenyl-11a,12-dihydro-11H-indeno[2,1-c][1,5]benzothiazepine; type: functional
Staphylococcus aureus [7] = test: Antibacterial activity against Staphylococcus aureus MTCC 7443 after 24 hrs by serial dilution method relative to 11,12-Diphenyl-11a,12-dihydro-11H-indeno[2,1-c][1,5]benzothiazepine; type: functional
Escherichia coli [8] = test: Antibacterial activity against Escherichia coli MTCC 42 after 24 hrs by serial dilution method; type: functional; conditions: for MIC: Escherichia coli, MTCC 42, 24 h
Candida albicans [9] = test: Antifungal activity against Candida albicans MTCC 183 after 72 hrs by serial dilution method; type: functional; conditions: for MIC: Candida albicans, MTCC 183, 72 h
Aspergillus fumigatus [10] = test: Antifungal activity against Aspergillus fumigatus MTCC 2550 after 72 hrs by serial dilution method relative to 11,12-Diphenyl-11a,12-dihydro-11H-indeno[2,1-c][1,5]benzothiazepine; type: functional
[11] = Octanol-water partition coefficient, log P of the compound; type: physicochemical
Escherichia coli [12] = test: Antibacterial activity against Escherichia coli MTCC 42 after 24 hrs by serial dilution method relative to 11,12-Diphenyl-11a,12-dihydro-11H-indeno[2,1-c][1,5]benzothiazepine; type: functional
Candida albicans [13] = test: Antifungal activity against Candida albicans MTCC 183 after 72 hrs by serial dilution method relative to 11,12-Diphenyl-11a,12-dihydro-11H-indeno[2,1-c][1,5]benzothiazepine; type: functional
Bacillus subtilis [14] = test: Antibacterial activity against Bacillus subtilis MTCC 441 after 24 hrs by serial dilution method relative to 11,12-Diphenyl-11a,12-dihydro-11H-indeno[2,1-c][1,5]benzothiazepine; type: functional

SMILES | MIC (Bacillus subtilis [1]) [µM] | -logMIC (Bacillus subtilis [2]) | -logMIC (Staphylococcus aureus [3]) | MIC (Staphylococcus aureus [3]) [µM] | -logMIC (Aspergillus fumigatus [4]) | MIC (Aspergillus fumigatus [4]) [µM] | -logMIC (Pseudomonas aeruginosa [5]) | MIC (Pseudomonas aeruginosa [5]) [µM] | Activity (Pseudomonas aeruginosa [6]) [%] | Activity (Staphylococcus aureus [7]) [%] | -logMIC (Escherichia coli [8]) | MIC (Escherichia coli [8]) [µM] | -logMIC (Candida albicans [9]) | MIC (Candida albicans [9]) [µM] | Activity (Aspergillus fumigatus [10]) [%] | logP [11] | Activity (Escherichia coli [12]) [%] | Activity (Candida albicans [13]) [%] | Activity (Bacillus subtilis [14]) [%] | further results
COc1ccc2c(c1)SC(c1ccc(Cl)cc1)C1C(=N2)c2ccccc2C1c1ccccc1 (stereo not given) | 26.7 (≈ 12.5 µg/mL) | 1.57 | 1.27 | 53.4 (≈ 25 µg/mL) | 1.57 | 26.7 (≈ 12.5 µg/mL) | 2.16 | 6.9 (≈ 3.23 µg/mL) | 88.85 | 13.73 | 1.57 | 26.7 (≈ 12.5 µg/mL) | 2.16 | 6.9 (≈ 3.23 µg/mL) | 78.45 | 7.23 | 78.45 | 88.85 | 56.86 | –
c1ccc(C2Sc3ccccc3N=C3c4ccccc4C(c4ccccc4)C32)cc1 (stereo not given) | 61.9 (≈ 25 µg/mL) | 1.21 | 1.21 | 61.9 (≈ 25 µg/mL) | 0.91 | 124 (≈ 50 µg/mL) | 1.21 | 61.9 (≈ 25 µg/mL) | – | – | 0.91 | 124 (≈ 50 µg/mL) | 1.21 | 61.9 (≈ 25 µg/mL) | – | 6.96 | – | – | – | –
COc1ccc(C2Sc3cc(OC)ccc3N=C3c4ccccc4C(c4ccccc4)C32)cc1 (stereo not given) | 53.9 (≈ 25 µg/mL) | 1.27 | 2.17 | 6.7 (≈ 3.11 µg/mL) | 1.87 | 13.4 (≈ 6.21 µg/mL) | 0.97 | 108 (≈ 50 µg/mL) | -74.15 | 89.17 | 1.57 | 26.9 (≈ 12.5 µg/mL) | 1.87 | 13.4 (≈ 6.21 µg/mL) | 89.18 | 6.46 | 78.28 | 78.35 | 12.92 | –
OC(Cn1cncn1)(Cn1cncn1)c1ccc(F)cc1F [FLUCONAZOLE] | – | – | – | – | – | 10.1 (≈ 3.09 µg/mL) | – | – | – | – | – | – | – | 10.1 (≈ 3.09 µg/mL) | – | – | – | – | – | –
Cc1ccc2c(c1)SC(c1ccc(Cl)cc1)C1C(=N2)c2ccccc2C1c1ccccc1 (stereo not given) | 111 (≈ 50 µg/mL) | 0.96 | – | – | 1.26 | 55.3 (≈ 25 µg/mL) | 1.56 | 27.6 (≈ 12.5 µg/mL) | 55.41 | – | 1.56 | 27.6 (≈ 12.5 µg/mL) | 1.26 | 55.3 (≈ 25 µg/mL) | 55.36 | 7.95 | 77.72 | 10.66 | -78.67 | Activity (Staphylococcus aureus [3]): inactive
COc1ccc(C2Sc3ccccc3N=C3c4ccccc4C(c4ccccc4)C32)cc1 (stereo not given) | 115 (≈ 50 µg/mL) | 0.94 | – | – | 1.24 | 57.6 (≈ 25 µg/mL) | – | – | – | – | 0.94 | 115 (≈ 50 µg/mL) | 0.94 | 115 (≈ 50 µg/mL) | 53.51 | 7.95 | 6.94 | -86.26 | -86.26 | Activity (Staphylococcus aureus [3]): inactive; Activity (Pseudomonas aeruginosa [5]): inactive
Cc1ccc(C2Sc3cc(C)ccc3N=C3c4ccccc4C(c4ccccc4)C32)cc1 (stereo not given) | 28.9 (≈ 12.5 µg/mL) | 1.54 | 1.54 | 28.9 (≈ 12.5 µg/mL) | 0.94 | 116 (≈ 50 µg/mL) | 0.94 | 116 (≈ 50 µg/mL) | -87.07 | 53.31 | 1.24 | 57.9 (≈ 25 µg/mL) | 0.94 | 116 (≈ 50 µg/mL) | 6.53 | 7.9 | 53.26 | -87.1 | 53.31 | –
COc1ccc2c(c1)SC(c1ccccc1)C1C(=N2)c2ccccc2C1c1ccccc1 (stereo not given) | 57.6 (≈ 25 µg/mL) | 1.24 | 1.84 | 14.4 (≈ 6.24 µg/mL) | 1.24 | 57.6 (≈ 25 µg/mL) | 1.24 | 57.6 (≈ 25 µg/mL) | 6.94 | 76.73 | 1.54 | 28.8 (≈ 12.5 µg/mL) | 0.94 | 115 (≈ 50 µg/mL) | 53.51 | 6.71 | 76.75 | -86.26 | 6.94 | –
COc1ccc(C2Sc3cc(Cl)ccc3N=C3c4ccccc4C(c4ccccc4)C32)cc1 (stereo not given) | 53.4 (≈ 25 µg/mL) | 1.27 | 1.88 | 13.3 (≈ 6.22 µg/mL) | 1.57 | 26.7 (≈ 12.5 µg/mL) | 2.18 | 6.6 (≈ 3.09 µg/mL) | 89.33 | 78.51 | 1.57 | 26.7 (≈ 12.5 µg/mL) | 1.88 | 13.3 (≈ 6.22 µg/mL) | 78.45 | 7.23 | 78.45 | 78.51 | 13.73 | –
Cc1ccc(C2Sc3cc(Cl)ccc3N=C3c4ccccc4C(c4ccccc4)C32)cc1 (stereo not given) | 27.6 (≈ 12.5 µg/mL) | 1.56 | 2.16 | 6.9 (≈ 3.12 µg/mL) | 1.56 | 27.6 (≈ 12.5 µg/mL) | 1.56 | 27.6 (≈ 12.5 µg/mL) | 55.41 | 88.85 | 1.86 | 13.8 (≈ 6.24 µg/mL) | 1.56 | 27.6 (≈ 12.5 µg/mL) | 77.72 | 7.95 | 88.86 | 55.41 | 55.41 | –
COc1ccc2c(c1)SC(c1ccc(C)cc1)C1C(=N2)c2ccccc2C1c1ccccc1 (stereo not given) | 112 (≈ 50 µg/mL) | 0.95 | 1.86 | 13.9 (≈ 6.22 µg/mL) | 1.25 | 55.8 (≈ 25 µg/mL) | 2.16 | 6.9 (≈ 3.09 µg/mL) | 88.85 | 77.54 | 1.55 | 27.9 (≈ 12.5 µg/mL) | 1.55 | 27.9 (≈ 12.5 µg/mL) | 54.96 | 7.18 | 77.48 | 54.92 | -80.45 | –
COc1ccc(C2Sc3cc(C)ccc3N=C3c4ccccc4C(c4ccccc4)C32)cc1 (stereo not given) | 55.8 (≈ 25 µg/mL) | 1.25 | 1.55 | 27.9 (≈ 12.5 µg/mL) | 0.95 | 112 (≈ 50 µg/mL) | 1.25 | 55.8 (≈ 25 µg/mL) | 9.85 | 54.92 | 0.95 | 112 (≈ 50 µg/mL) | 0.95 | 112 (≈ 50 µg/mL) | 9.84 | 7.18 | 9.84 | -80.45 | 9.85 | –
Cc1ccc2c(c1)SC(c1ccccc1)C1C(=N2)c2ccccc2C1c1ccccc1 (stereo not given) | 120 (≈ 50 µg/mL) | 0.92 | 0.92 | 120 (≈ 50 µg/mL) | 1.22 | 59.8 (≈ 25 µg/mL) | 1.52 | 29.9 (≈ 12.5 µg/mL) | 51.69 | -93.37 | – | – | 1.22 | 59.8 (≈ 25 µg/mL) | 51.73 | 7.43 | – | 3.39 | -93.37 | –
Cc1ccc(C2Sc3ccccc3N=C3c4ccccc4C(c4ccccc4)C32)cc1 (stereo not given) | 59.8 (≈ 25 µg/mL) | 1.22 | 0.92 | 120 (≈ 50 µg/mL) | – | – | – | – | – | -93.37 | 0.92 | 120 (≈ 50 µg/mL) | – | – | – | 7.43 | 3.38 | – | 3.39 | Activity (Aspergillus fumigatus [4]): inactive; Activity (Pseudomonas aeruginosa [5]): inactive; Activity (Candida albicans [9]): inactive
Clc1ccc(C2Sc3ccccc3N=C3c4ccccc4C(c4ccccc4)C32)cc1 (stereo not given) | 7.1 (≈ 3.11 µg/mL) | 2.15 | 1.55 | 28.5 (≈ 12.5 µg/mL) | 1.24 | 57 (≈ 25 µg/mL) | 0.94 | 114 (≈ 50 µg/mL) | -84.32 | 53.95 | 1.24 | 57 (≈ 25 µg/mL) | 0.94 | 114 (≈ 50 µg/mL) | 53.99 | 7.48 | 53.99 | -84.32 | 88.52 | –
CC1(C)S[C@@H]2[C@H](NC(=O)Cc3ccccc3)C(=O)N2[C@H]1C(=O)O [PENICILLIN G] | 4.6 (≈ 1.54 µg/mL) | – | – | 4.6 (≈ 1.54 µg/mL) | – | – | – | 18.7 (≈ 6.25 µg/mL) | – | – | – | 37.4 (≈ 12.5 µg/mL) | – | – | – | – | – | – | – | –
CN[C@@H]1[C@H](O[C@H]2[C@H](O[C@H]3[C@H](O)[C@@H](O)[C@H](N=C(N)N)[C@@H](O)[C@@H]3N=C(N)N)O[C@@H](C)[C@]2(O)C=O)O[C@@H](CO)[C@H](O)[C@H]1O [STREPTOMYCIN] | 10.7 (≈ 6.22 µg/mL) | – | – | 10.7 (≈ 6.22 µg/mL) | – | – | – | 2.6 (≈ 1.51 µg/mL) | – | – | – | 5.3 (≈ 3.08 µg/mL) | – | – | – | – | – | – | – | –
